pEC50, pIC50, pKd: −log10 of the molar value.
Assays:
[1] = target: T1, Papain (Carica papaya) (UniProt P00784); experiment: Irreversible inhibition of Carica papaya papain assessed as ratio of Kinact to Ki
T1 sequence (whole entry): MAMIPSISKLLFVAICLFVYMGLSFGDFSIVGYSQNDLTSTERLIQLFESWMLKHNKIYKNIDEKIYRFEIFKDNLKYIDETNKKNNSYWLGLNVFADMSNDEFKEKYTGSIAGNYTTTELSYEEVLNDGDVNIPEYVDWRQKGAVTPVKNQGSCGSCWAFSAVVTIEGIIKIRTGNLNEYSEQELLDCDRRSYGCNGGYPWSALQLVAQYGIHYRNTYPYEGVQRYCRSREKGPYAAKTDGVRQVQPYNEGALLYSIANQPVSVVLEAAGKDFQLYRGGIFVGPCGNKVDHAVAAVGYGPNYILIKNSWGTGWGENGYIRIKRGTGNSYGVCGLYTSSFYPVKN

[2] = Glutathione reactivity of the compound in acetonitrile to tris-HCL buffer at pH 7.4 by NMR spectroscopic analysis
[3] = DTT reactivity of the compound in acetonitrile to tris-HCL buffer at pH 7.4 by NMR spectroscopic analysis
[4] = Thiol reactivity of the compound in PBS buffer assessed as pseudo-first order rate constant for adduct formation in presence of 4-nitrobenzenethiol at pH 7.4 by stop-flow spectrophotometric analysis
[5] = Beta-mercaptoethanol reactivity of the compound in CD3OD/deuterio phosphate buffer assessed as equilibrium constant for adduct formation at pH 7.4 by […] analysis
[6] = Cysteine reactivity of the compound in CD3OD/deuterio phosphate buffer assessed as equilibrium constant for adduct formation at pH 7.4 by […] analysis
[7] = Butanethiol reactivity of the compound in CD3OD/deuterio phosphate buffer assessed as equilibrium constant for adduct formation at pH 7.4 by […] analysis
[8] = Methanethiol reactivity of the compound in CD3OD/deuterio phosphate buffer assessed as equilibrium constant for adduct formation at pH 7.4 by […] analysis
[9] = Glutathione reactivity of the compound in CD3OD/deuterio phosphate buffer assessed as equilibrium constant for adduct formation at pH 7.4 by […] analysis
[10] = target: Adenosylhomocysteinase (Homo sapiens) (UniProt P23526); experiment: Inhibition of S-adenosyl-L-homocysteine hydrolase (unknown origin)
[11] = target: Adenosylhomocysteinase (Homo sapiens) (UniProt P23526); experiment: Ratio of Kinact to Ki for S-adenosyl-L-homocysteine hydrolase (unknown origin)
[12] = Cysteamine reactivity of the compound in TRIS-HCL assessed as second order rate constant at 40 uM and pH 7.4 by stopped-flow assay
[13] = Glutathione reactivity of the compound in DMSO and phosphate buffer assessed as second order rate constant for adduct formation
[14] = Thiol reactivity of the compound assessed as equilibrium constant for adduct formation
[15] = target: Exportin-1 (Homo sapiens, UniProt O14980); experiment: Inhibition of CRM1-mediated nucleocytoplasmic transport in human HeLa cells after 90 mins by immunofluorescence assay; type: cell-based
[16] = Glutathione reactivity of the compound assessed as second order rate constant by 1H NMR analysis
[17] = target: Sodium-dependent dopamine transporter (Rattus norvegicus, UniProt P23977); experiment: Inhibition of [3H]dopamine uptake at DAT in rat brain striatal synaptosomes by liquid scintillation counting analysis; type: subcellular, Striatum
[18] = Cysteine reactivity of the compound assessed as second order rate constant by 1H NMR analysis
[19] = Lysine reactivity of the compound in aqueous buffer assessed as drug recovery after 6 days at pH 7.4
[20] = system: Tetrahymena pyriformis; experiment: Toxicity in Tetrahymena pyriformis assessed as growth inhibition after 48 hrs
[21] = system: Proto-oncogene tyrosine-protein kinase Src (Gallus gallus), P00523 [S345C]; experiment: Ratio of Kinact to Ki for chicken c-Src S345C mutant (251 to 533 residues) expressed in Escherichia coli
[22] = target: Proto-oncogene tyrosine-protein kinase Src (Gallus gallus, UniProt P00523, S345C); experiment: Inhibition of chicken c-Src S345C mutant (251 to 533 residues) expressed in Escherichia coli by fluorescence assay
[23] = Inhibition of wild-type HCV genotype 1b protease using 5-FAM/QXL 520 as substrate after 60 to 90 mins by FRET-based assay; set-up: species or system Hepatitis C virus subtype 1b
[24] = Thiol reactivity of the compound in PBS buffer assessed as adduct formation at 100 to 200 uM at pH 7.4 by UV-visible spectroscopic analysis
[25] = Inhibition of PI3K (unknown origin); set-up: species or system Homo sapiens
[26] = Glutathione reactivity of the compound assessed as adduct formation after 2 mins by mass spectrometric analysis
[27] = Cysteine reactivity of the compound assessed as adduct formation after 2 mins by mass spectrometric analysis

Chain of Sodium-dependent dopamine transporter (P23977 whole entry): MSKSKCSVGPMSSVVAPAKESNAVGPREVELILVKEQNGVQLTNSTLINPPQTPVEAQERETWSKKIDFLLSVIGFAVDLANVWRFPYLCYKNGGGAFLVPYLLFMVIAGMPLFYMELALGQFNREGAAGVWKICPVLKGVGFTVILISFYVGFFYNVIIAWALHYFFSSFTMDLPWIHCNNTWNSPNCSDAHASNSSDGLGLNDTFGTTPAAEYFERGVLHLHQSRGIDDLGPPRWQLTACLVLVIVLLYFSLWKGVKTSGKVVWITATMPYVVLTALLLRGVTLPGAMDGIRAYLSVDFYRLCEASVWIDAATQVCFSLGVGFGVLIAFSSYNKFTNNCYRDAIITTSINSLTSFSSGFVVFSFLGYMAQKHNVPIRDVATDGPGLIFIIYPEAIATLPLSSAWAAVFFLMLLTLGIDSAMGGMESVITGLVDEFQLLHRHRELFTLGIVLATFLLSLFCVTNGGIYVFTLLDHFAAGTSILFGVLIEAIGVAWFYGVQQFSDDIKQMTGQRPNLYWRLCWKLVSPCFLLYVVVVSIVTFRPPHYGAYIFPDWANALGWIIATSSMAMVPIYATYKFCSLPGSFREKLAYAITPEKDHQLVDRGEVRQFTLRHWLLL
Chain of Adenosylhomocysteinase (Homo sapiens) (P23526 2-432 limits assumed): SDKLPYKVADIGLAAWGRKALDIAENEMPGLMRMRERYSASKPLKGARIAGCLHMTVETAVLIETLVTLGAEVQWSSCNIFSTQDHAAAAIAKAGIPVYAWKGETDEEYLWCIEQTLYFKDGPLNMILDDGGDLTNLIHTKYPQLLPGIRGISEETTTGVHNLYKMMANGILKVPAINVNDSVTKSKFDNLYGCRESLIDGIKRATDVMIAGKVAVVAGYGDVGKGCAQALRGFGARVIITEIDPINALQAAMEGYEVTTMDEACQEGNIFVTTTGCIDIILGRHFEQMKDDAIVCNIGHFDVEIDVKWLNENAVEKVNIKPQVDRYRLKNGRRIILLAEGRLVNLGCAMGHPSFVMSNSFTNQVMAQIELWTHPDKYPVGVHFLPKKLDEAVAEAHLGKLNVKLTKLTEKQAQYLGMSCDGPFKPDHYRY
Chain of Exportin-1 (O14980 whole entry): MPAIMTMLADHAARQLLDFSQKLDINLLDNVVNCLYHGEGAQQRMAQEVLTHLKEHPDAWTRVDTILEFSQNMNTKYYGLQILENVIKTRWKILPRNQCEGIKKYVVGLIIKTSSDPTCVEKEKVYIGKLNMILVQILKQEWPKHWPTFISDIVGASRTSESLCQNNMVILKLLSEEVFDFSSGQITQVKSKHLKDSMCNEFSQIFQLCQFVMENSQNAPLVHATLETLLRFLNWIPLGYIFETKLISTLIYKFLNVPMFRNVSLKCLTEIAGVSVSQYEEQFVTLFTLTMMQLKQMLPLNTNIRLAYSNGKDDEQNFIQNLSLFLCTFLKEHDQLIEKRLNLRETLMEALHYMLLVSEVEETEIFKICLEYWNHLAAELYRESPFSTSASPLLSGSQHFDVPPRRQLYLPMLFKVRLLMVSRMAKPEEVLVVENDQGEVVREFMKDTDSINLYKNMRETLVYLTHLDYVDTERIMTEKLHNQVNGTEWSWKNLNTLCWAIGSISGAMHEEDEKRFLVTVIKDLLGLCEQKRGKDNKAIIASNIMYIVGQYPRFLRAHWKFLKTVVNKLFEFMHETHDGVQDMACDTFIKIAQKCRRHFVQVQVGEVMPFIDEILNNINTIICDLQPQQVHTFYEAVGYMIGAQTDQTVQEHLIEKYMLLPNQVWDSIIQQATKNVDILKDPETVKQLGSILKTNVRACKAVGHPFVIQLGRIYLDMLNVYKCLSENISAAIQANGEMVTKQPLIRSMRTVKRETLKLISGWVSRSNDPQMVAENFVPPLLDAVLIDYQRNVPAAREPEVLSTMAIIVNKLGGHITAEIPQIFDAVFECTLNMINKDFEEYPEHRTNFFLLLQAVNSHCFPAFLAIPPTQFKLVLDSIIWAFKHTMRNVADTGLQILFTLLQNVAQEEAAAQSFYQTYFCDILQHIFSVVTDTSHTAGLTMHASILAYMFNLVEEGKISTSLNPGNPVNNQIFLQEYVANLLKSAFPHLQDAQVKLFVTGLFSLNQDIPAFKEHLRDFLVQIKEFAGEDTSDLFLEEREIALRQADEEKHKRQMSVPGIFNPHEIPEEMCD

`COC(=O)/C=C/CNC(=O)[C@H](CNC(C)=O)Cc1ccccc1` showed a Ratio [1] of 0.4 M⁻¹ s⁻¹.
`O=C1/C(=C/c2ccccc2O)CC/C1=C\c1ccccc1O` showed an Activity [2] of 87 M⁻¹ s⁻¹ and a DTT second-order rate constant [3] of 29 M⁻¹ s⁻¹.
Compound `CC(C)(C)c1cc(O)cc(Sc2ccc([N+](=O)[O-])cc2)c1O` has a K [4] of 2.3 ×10¹ /s.
For `CCCCC[C@H](O)/C=C/[C@H]1C=CC(=O)/C1=C/CCCCCC(=O)OC`, the Ke [5] was 0.35 to 1.6 M⁻¹, the Ke [6] was 0.35 to 1.6 M⁻¹ and the Ke [7] was 0.35 to 1.6 M⁻¹. The Ke [8] was 0.35 to 1.6 M⁻¹ and the Ke [9] was 0.35 to 1.6 M⁻¹.
Work on `COC1=C(OC)/C(=C/Cn2cnc3c(N)ncnc32)OC1=O` yielded a K [10] of 84.9 M⁻¹ s⁻¹ and a Ratio [11] of 152 M⁻¹ s⁻¹.
In the case of `COc1ccc(C(=O)C(C(SCCN)c2ccc(OC)c(OC)c2)[N+](=O)[O-])c(OC)c1` (stereo not drawn), the K [12] was 750 M⁻¹ s⁻¹.
With `O=C1C=CCC1` the K [13] was 25.6 M⁻¹ s⁻¹ and the Ke [14] was 3900 M⁻¹.
`Cc1cc(O)cc(Sc2ccc([N+](=O)[O-])cc2)c1O` gave a K [4] of 3.2 ×10² /s.
With `CCC(=C/C(C)C)/C=C/[C@@H]1OC(=O)C=C[C@@H]1C` the pIC50 [15] was 7.60.
With `C=C1CCOC1=O` the K [16] was 1.3 ×10⁻⁴ /M/s.
`C=CC=O` [ACROLEIN] gave a pIC50 [17] of 4.28.
Work on `CCN1C(=O)C=CC1=O` [N-ETHYLMALEIMIDE] yielded a pIC50 [17] of 4.33 and a K [18] of 3750 M⁻¹ s⁻¹.
`C=C[C@@]12COC(=O)C(=C)[C@@H]1[C@H]1OC(=O)C(=C)[C@@H]1[C@@H](O)C2` showed a K [18] of 200 M⁻¹ s⁻¹ and a Drug recovery [19] of 75%.
`O=C(/C=C/c1ccccc1O)/C=C/c1ccccc1O` gave an Activity [2] of 5 M⁻¹ s⁻¹ and a DTT second-order rate constant [3] of 2.5 M⁻¹ s⁻¹.
With `CC1=CC(=O)CC1` the pEC50 [20] was 1.68, the K [13] was 0.074 M⁻¹ s⁻¹ and the Ke [14] was 0.88 M⁻¹.
`C=C(C)C(=O)O[C@H]1CC2=C[C@@H](C[C@@]3(C)O[C@H]3[C@H]3OC(=O)C(=C)[C@@H]31)OC2=O` gave a K [18] of 20 M⁻¹ s⁻¹ and a Drug recovery [19] of 75%.
With `CN(C)C/C=C/C(=O)Nc1ccc2ncnc(Nc3cccc(Br)c3)c2c1` the Ratio [21] was 0.085 M⁻¹ s⁻¹ and the pIC50 [22] was 6.62.
`O=C(/C=C/c1ccccc1)/C=C/c1ccccc1` gave an Activity [2] of 0.15 M⁻¹ s⁻¹ and a DTT second-order rate constant [3] of 0.42 M⁻¹ s⁻¹.
For `COC(=O)/C=C/CNC(=O)C1CCN(C(=O)CC(C)C)CC1`, the Ratio [1] was 0.5 M⁻¹ s⁻¹.
`CCCCCC#CC=O` showed a pEC50 [20] of 4.72 and a K [13] of 487 M⁻¹ s⁻¹.
Work on `C=CC(=O)NCC(=O)N1C[C@H](Oc2nccc3ccc(Br)cc23)C[C@H]1C(=O)N[C@]1(C(=O)CS(=O)(=O)C2CC2)C[C@H]1C=C` yielded a pIC50 [23] of 8.70.
Compound `N#CC(C(N)=O)C(SCCO)c1ccsc1` (stereo not drawn) has a pKd [24] of 1.92.
`CO[C@H]1OC(=O)/C(=C\SC(C)C)C2=C(O)C(=O)C3=C([C@H](OC(C)=O)C[C@]4(C)C(=O)CC[C@@H]34)[C@]21C` showed a pIC50 [25] of 10.00.
With `CCCCC[C@@H](O)C/C=C1/C(=O)C=C[C@@H]1C/C=C\CCCC(=O)O` the Drug metabolism [26] was 70% and the Drug metabolism [27] was 85%.
`C/C=C(\C)C=O` [2-methyl-(E)-2-butenal] gave a pEC50 [20] of 2.86 and a K [13] of 0.474 M⁻¹ s⁻¹.
In the case of `C=C(C)C(=O)OC`, the pEC50 [20] was 1.78 and the K [13] was 0.072 M⁻¹ s⁻¹.
Work on `COC[C@H]1OC(=O)c2coc3c2[C@@]1(C)C1=C(C3=O)[C@@H]2CCC(=O)[C@@]2(C)C[C@H]1OC(C)=O` [WORTMANNIN] yielded a pIC50 [25] of 9.10.
For `O=[N+]([O-])c1ccc(Sc2cc(O)ccc2O)cc1`, the K [4] was 1.5 ×10³ /s.
`CC1C(=O)CCC1Sc1ccccc1` (stereo not drawn) showed a Ke [14] of 1.28 M⁻¹.
